For test [1], the system named is NCI60 cancer cell lines. The following applies: earlier studies of the inventors; cited from earlier work.
In test [2] the test system is tumor burden. The following applies: earlier studies of the inventors; cited from earlier work.
Test [3] concerns RPA194. The experiment in a line: Determination of RPA194 IC50 (immunofluorescence image analysis of RPA194 degradation). In kind it is cell-based. The following applies: U2OS cells, 3 h treatment, 0.1-10 μM, fold change to control, three-parameter fit. An excerpt: (§1) Immunofluorescence, Epifluorescence Microscopy and Image Analysis. […] Cells were stained for RPA194 (C-1, Santa Cruz Biotechnology) and NCL (4E2, Abeam). […] DNA was counterstained with DAPI (Invitrogen). Images were captured using Axioplan2 fluorescence microscope (Zeiss) equipped with AxioCam HRc CCD-camera and AxioVision 4.5 software using EC Plan-Neofluar 20×/0.75 objective (Zeiss). […] Hue saturation and brightness range were defined individually for RPA194 and NCL. All values were normalized to the DNA content. Two-four fields of each treatment were recorded and quantification was based on an average of 200 cells.
Determination of RPA194 and NCL IC50. U2OS cells grown on coverslips were treated the compounds at 0.1, 0.5, 1, 5 and 10 μM, or vehicle (DMSO)-treated for 3 h and fixed and stained as above. All compounds, except when indicated, were tested in duplicate independent biological experiments Immunostaining for NCL and RPA194 was conducted separately, and cells were counterstained for DNA. Two-four fields of each treatment were captured using epifluorescence microscopy as above, and contained on average of 200 cells/analysis. […] Hue saturation and brightness range were defined individually for RPA194 and NCL, and all values were normalized to the DNA content.

The subject of test [4] is NCL. The experiment in a line: Determination of NCL IC50 (loss of NCL nucleolar intensity, immunofluorescence image analysis). The following applies: U2OS cells, 3 h treatment, 0.1-10 μM, fold change to control, three-parameter fit. In kind it is cell-based.
Text: as §1
Determination of RPA194 and NCL IC50. […] All compounds, except when indicated, were tested in duplicate independent biological experiments Immunostaining for NCL and RPA194 was conducted separately, and cells were counterstained for DNA. Two-four fields of each treatment were captured using epifluorescence microscopy as above, and contained on average of 200 cells/analysis. […] Hue saturation and brightness range were defined individually for RPA194 and NCL, and all values were normalized to the DNA content.

As for `CN(C)CCNC(=O)c1cccn2c(=O)c3cc4ccccc4cc3nc12` [BMH-21, 12H-Benzo[g]pyrido[2,1-b]quinazoline-4-carboxamide, N-[2(dimethylamino)ethyl]-12-oxo], in test [1], the “anticancer activity in NCI60 cancer cell lines” value was “broad and potent anticancer activity”. Also, the “tumor burden in mouse xenograft assays” value in test [2] is “reduced tumor burden”.
Consider `CCN(CC)C1CCN(C(=O)c2cccn3c(=O)c4cc5ccccc5cc4nc23)C1` (stereo not drawn) [Compound 19, 4-[3-(diethylamino)pyrrolidine-1-carbonyl]-12H-benzo[g]pyrido[2,1-b]quinazoline-12-one], for which the IC50 – broadly, the midpoint of a concentration-inhibition curve – in test [3] worked out at 32 µM; in test [4] it was 11 µM.
For `CN1CC(NC(=O)c2cccn3c(=O)c4cc5ccccc5cc4nc23)C1` [Compound 29, N-(1-methylazetidin-3-yl)-12-oxo-12H-benzo[g]pyrido[2,1-b]quinazoline-4-carboxamide], in that order: 0.9 µM and 0.47 µM.
For `CC(C)(N)CNC(=O)c1cccn2c(=O)c3cc4ccccc4cc3nc12` [Compound 30, N-(2-amino-2-methyl-propyl)-12-oxo-12H-benzo[g]pyrido[2,1-b]quinazoline-4-carboxamide], in that order: 0.27 µM and 0.2 µM.
`CN(C)C(C)(C)CNC(=O)c1cccn2c(=O)c3cc4ccccc4cc3nc12` [Compound 31, N-[2-(dimethylamino)-2-methyl-propyl]-12-oxo-12H-benzo[g]pyrido[2,1-b]quinazoline-4-carboxamide]: the values for the IC50 in test [3] and in test [4] were 0.16 µM and 0.14 µM, respectively.
The corresponding values for `CC(N)CNC(=O)c1cccn2c(=O)c3cc4ccccc4cc3nc12` (stereo not drawn) [Compound 32, N-(2-aminopropyl)-12-oxo-12H-benzo[g]pyrido[2,1-b]quinazoline-4-carboxamide] are 0.1 µM and 0.1 µM.
For `C[C@@H](N)CNC(=O)c1cccn2c(=O)c3cc4ccccc4cc3nc12` [Compound 33, N-[(2R)-2-aminopropyl]-12-oxo-12H-benzo[g]pyrido[2,1-b]quinazoline-4-carboxamide], in that order: 0.11 µM and 0.81 µM.
As to `C[C@H](N)CNC(=O)c1cccn2c(=O)c3cc4ccccc4cc3nc12` [Compound 35, N-[(2S)-2-aminopropyl]-12-oxo-12H-benzo[g]pyrido[2,1-b]quinazoline-4-carboxamide], the half-maximal inhibitory concentration (IC50) in test [3] was determined as 0.12 µM; in test [4], 0.17 µM.
The corresponding values for `O=C(NCCc1ccncc1)c1cccn2c(=O)c3cc4ccccc4cc3nc12` [Compound 37, 12-oxo-N-[2-(4-pyridyl)ethyl]-12H-benzo[g]pyrido[2,1-b]quinazoline-4-carboxamide] are 3.5 µM and more than 100 µM.

Values taken from US11001581B2, “Compounds which inhibit RNA polymerase, compositions including such compounds, and their use” (THE JOHNS HOPKINS UNIVERSITY, priority 2014, dated 2021).
